Data: patent US11197878B2, “Anti-inflammatory composition including novel quercetin-based compound” (AMOREPACIFIC CORPORATION, priority 2017, dated 2021)

Experiments:
IL-6 (Interleukin 6) = assay: Test for inhibiting generation of IL-6 in H2O2-stimulated fibroblast (ELISA); type: cell-based
Description: (§1) Fibroblast (PromoCell, Germany) was inoculated in a 6-well culturing plate at a concentration of 1×10^5 cells, and cultured in a 5% CO2 incubator at 37° C. for 24 hours. The well was treated with H2O2 500 μM and stimulated for 24 hours, and then were treated with quercetin3-O-[3-O″-(E)-p-coumaroyl][β-D-glucopyranosyl-(1→3)-O-α-L-rhamnopyranosyl-(1→6)-O-β-D-glucopyranoside] (‘New Material 31’) and quercetin3-O-[3-O″-(E)-p-coumaroyl][α-L-rhamnopyranosyl-(1→6)-O-β-D-glucopyranoside]) (‘New Material 32’) at a concentration of 100 μg/ml, respectively, and reacted for 48 hours. After the reaction was finished, the culture medium was collected and the ELISA analysis was performed. Herein, α-bisabolol, which is the material typically used as an anti-inflammatory agent and abirritant, was used as a control. As PGE2, a kit of Assay Design® was used, and as IL-6 and IL-8, a kit of Endogen® was used, and the test was carried out according to the methods prescribed in the manuals of the respective companies. (‘31’ refers to New Material 31, and ‘32’ refers to New Material 32) Inhibition effect={1−(test sample−control)/(H2O2−control)}×100 <Equation 1>

IL-8 (Interleukin 8) = assay: Test for inhibiting generation of IL-8 in H2O2-stimulated fibroblast (ELISA); type: cell-based
Description: as §1

skin = assay: Test for skin accumulated stimulus, HRIPT (Human repeated insult patch tests); type: in vivo; conditions: for Number of examinees who exhibited ±, +, or ++ reactivity, 1st: 1st patch; for Number of examinees who exhibited ±, +, or ++ reactivity, 2nd: 2nd patch; for Number of examinees who exhibited ±, +, or ++ reactivity, 3rd: 3rd patch; for Number of examinees who exhibited ±, +, or ++ reactivity, 4th: 4th patch; for Number of examinees who exhibited ±, +, or ++ reactivity, 5th: 5th patch; for Number of examinees who exhibited ±, +, or ++ reactivity, 6th: 6th patch; for Number of examinees who exhibited ±, +, or ++ reactivity, 7th: 7th patch; for Number of examinees who exhibited ±, +, or ++ reactivity, 8th: 8th patch; for Number of examinees who exhibited ±, +, or ++ reactivity, 9th: 9th patch
Description: HRIPT (Human repeated insult patch tests) was conducted in order to identify skin accumulated stimulus of quercetin3-O-[3-O″-(E)-p-coumaroyl][β-D-glucopyranosyl-(1→3)-O-α-L-rhamnopyranosyl-(1→6)-O-β-D-glucopyranoside] and quercetin3-O-[3-O″-(E)-p-coumaroyl][α-L-rhamnopyranosyl-(1→6)-O-β-D-glucopyranoside] and to calculate the concentration range that can be used in skin. Specifically, 15 healthy adult examinees were randomly selected, and test compositions in which the compounds were respectively comprised in an amount of 0.5 wt. %, 1 wt. %, and 3 wt. % (the compositions for skin, comprising an emulsifying agent, a stabilizer, purified water, etc. in addition to the compounds) were dropped in the amount of 20 μl per chamber (IQ chamber, Epitest Ltd, Finland), and patched on the right site of the upper back of the examinees, and then, after 24 hours, the patch was replaced with a new patch. A total of 9 patches were conducted, three times a week for total 3 weeks, in such manner, the skin reactions before and after patch were examined every time, and the skin reactions until 48 hours after removing the final patch were observed, and the average reactivity was observed. The skin reaction was determined according to the criteria of International Contact Dermatitis Research Group (ICDRG). In the above table, “New Material 31” refers to quercetin3-O-[3-O″-(E)-p-coumaroyl][β-D-glucopyranosyl-(1→3)-O-α-L-rhamnopyranosyl-(1→6)-O-β-D-glucopyranoside], and “New Material 32” refers to quercetin3-O-[3-O″-(E)-p-coumaroyl][α-L-rhamnopyranosyl-(1→6)-O-β-D-glucopyranoside].

[1] = fibroblast culture medium, H2O2 500 μM 24 hours, then test material (31, 32: 100 μg/ml) 48 hours, ELISA

C[C@@H]1O[C@@H](OC[C@H]2O[C@@H](Oc3c(-c4ccc(O)c(O)c4)oc4cc(O)cc(O)c4c3=O)[C@H](O)[C@@H](OC(=O)/C=C/c3ccc(O)cc3)[C@@H]2O)[C@H](O)[C@H](O)[C@H]1O [New Material 32, quercetin3-O-[3-O″-(E)-p-coumaroyl][α-L-rhamnopyranosyl-(1→6)-O-β-D-glucopyranoside]]
inhibition at 100 µg/mL (IL-6 (Interleukin 6); Fibroblast, 100 μg/ml, {1−(test sample−control)/(H2O2−control)}×100, read-out: Inhibition effect according to Equation 1, IL-6): 29.2% | IL-6 (IL-6 (Interleukin 6); [1]): 226 pg/mL | inhibition at 100 µg/mL (IL-8 (Interleukin 8); Fibroblast, 100 μg/ml, {1−(test sample−control)/(H2O2−control)}×100, read-out: Inhibition effect according to Equation 1, IL-8): 61.1% | IL-8 (IL-8 (Interleukin 8); [1]): 235 pg/mL | Number of examinees who exhibited ±, +, or ++ reactivity, 1st (skin; 0.5 wt. %, line 1 of 3 (±)): 0 number | Number of examinees who exhibited ±, +, or ++ reactivity, 1st (skin; 0.5 wt. %, line 2 of 3 (+)): 0 number | Number of examinees who exhibited ±, +, or ++ reactivity, 1st (skin; 0.5 wt. %, line 3 of 3 (++)): 0 number | Number of examinees who exhibited ±, +, or ++ reactivity, 2nd (skin; 0.5 wt. %, line 1 of 3 (±)): 0 number | Number of examinees who exhibited ±, +, or ++ reactivity, 2nd (skin; 0.5 wt. %, line 2 of 3 (+)): 0 number | Number of examinees who exhibited ±, +, or ++ reactivity, 2nd (skin; 0.5 wt. %, line 3 of 3 (++)): 0 number | Number of examinees who exhibited ±, +, or ++ reactivity, 3rd (skin; 0.5 wt. %, line 1 of 3 (±)): 0 number | Number of examinees who exhibited ±, +, or ++ reactivity, 3rd (skin; 0.5 wt. %, line 2 of 3 (+)): 0 number | Number of examinees who exhibited ±, +, or ++ reactivity, 3rd (skin; 0.5 wt. %, line 3 of 3 (++)): 0 number | Number of examinees who exhibited ±, +, or ++ reactivity, 4th (skin; 0.5 wt. %, line 1 of 3 (±)): 0 number | Number of examinees who exhibited ±, +, or ++ reactivity, 4th (skin; 0.5 wt. %, line 2 of 3 (+)): 0 number | Number of examinees who exhibited ±, +, or ++ reactivity, 4th (skin; 0.5 wt. %, line 3 of 3 (++)): 0 number | Number of examinees who exhibited ±, +, or ++ reactivity, 5th (skin; 0.5 wt. %, line 1 of 3 (±)): 0 number | Number of examinees who exhibited ±, +, or ++ reactivity, 5th (skin; 0.5 wt. %, line 2 of 3 (+)): 0 number | Number of examinees who exhibited ±, +, or ++ reactivity, 5th (skin; 0.5 wt. %, line 3 of 3 (++)): 0 number | Number of examinees who exhibited ±, +, or ++ reactivity, 6th (skin; 0.5 wt. %, line 1 of 3 (±)): 0 number | Number of examinees who exhibited ±, +, or ++ reactivity, 6th (skin; 0.5 wt. %, line 2 of 3 (+)): 0 number | Number of examinees who exhibited ±, +, or ++ reactivity, 6th (skin; 0.5 wt. %, line 3 of 3 (++)): 0 number | Number of examinees who exhibited ±, +, or ++ reactivity, 7th (skin; 0.5 wt. %, line 1 of 3 (±)): 0 number | Number of examinees who exhibited ±, +, or ++ reactivity, 7th (skin; 0.5 wt. %, line 2 of 3 (+)): 0 number | Number of examinees who exhibited ±, +, or ++ reactivity, 7th (skin; 0.5 wt. %, line 3 of 3 (++)): 0 number | Number of examinees who exhibited ±, +, or ++ reactivity, 8th (skin; 0.5 wt. %, line 1 of 3 (±)): 0 number | Number of examinees who exhibited ±, +, or ++ reactivity, 8th (skin; 0.5 wt. %, line 2 of 3 (+)): 0 number | Number of examinees who exhibited ±, +, or ++ reactivity, 8th (skin; 0.5 wt. %, line 3 of 3 (++)): 0 number | average reactivity (skin; 0.5 wt. %, 9 patches over 3 weeks, 15 examinees, less than 3 is considered a stable composition): 0 | Number of examinees who exhibited ±, +, or ++ reactivity, 9th (skin; 0.5 wt. %, line 1 of 3 (±)): 0 number | Number of examinees who exhibited ±, +, or ++ reactivity, 9th (skin; 0.5 wt. %, line 2 of 3 (+)): 0 number | Number of examinees who exhibited ±, +, or ++ reactivity, 9th (skin; 0.5 wt. %, line 3 of 3 (++)): 0 number | Number of examinees who exhibited ±, +, or ++ reactivity, 1st (skin; 1 wt. %, line 1 of 3 (±)): 0 number | Number of examinees who exhibited ±, +, or ++ reactivity, 1st (skin; 1 wt. %, line 2 of 3 (+)): 0 number | Number of examinees who exhibited ±, +, or ++ reactivity, 1st (skin; 1 wt. %, line 3 of 3 (++)): 0 number | Number of examinees who exhibited ±, +, or ++ reactivity, 2nd (skin; 1 wt. %, line 1 of 3 (±)): 0 number | Number of examinees who exhibited ±, +, or ++ reactivity, 2nd (skin; 1 wt. %, line 2 of 3 (+)): 0 number | Number of examinees who exhibited ±, +, or ++ reactivity, 2nd (skin; 1 wt. %, line 3 of 3 (++)): 0 number | Number of examinees who exhibited ±, +, or ++ reactivity, 3rd (skin; 1 wt. %, line 1 of 3 (±)): 0 number | Number of examinees who exhibited ±, +, or ++ reactivity, 3rd (skin; 1 wt. %, line 2 of 3 (+)): 0 number | Number of examinees who exhibited ±, +, or ++ reactivity, 3rd (skin; 1 wt. %, line 3 of 3 (++)): 0 number | Number of examinees who exhibited ±, +, or ++ reactivity, 4th (skin; 1 wt. %, line 1 of 3 (±)): 0 number | Number of examinees who exhibited ±, +, or ++ reactivity, 4th (skin; 1 wt. %, line 2 of 3 (+)): 0 number | Number of examinees who exhibited ±, +, or ++ reactivity, 4th (skin; 1 wt. %, line 3 of 3 (++)): 0 number
